“And” between values parts separate entries of the source, which are not always exact repeats. Equal entries are not always repeated.
Key:
S. aureus ATCC25923 = test: MIC by microdilution, S. aureus ATCC25923; assay type: cell-based, Staphylococcus aureus; details: S. aureus ATCC25923 (MecA negative, wild-type), Mueller-Hinton broth, in duplicate
Summary of the method: (§1)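 Broth microdilution per CLSI document M07-A10, Mueller-Hinton medium, each MIC run in duplicate. Strains include E. coli ATCC25922 (wild-type), S. epidermidis ATCC35984 (MecA positive) and S. aureus ATCC700699 (MecA positive, glycopeptide resistant), within a mixed panel of susceptible and resistant Gram-positive/Gram-negative bacteria.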

S. aureus ATCC29213 = test: MIC by microdilution, S. aureus ATCC29213; assay type: cell-based, Staphylococcus aureus; details: S. aureus ATCC29213 (MecA negative, wild-type), Mueller-Hinton broth, in duplicate
Summary of the method: as §1

S. aureus ATCC700699 = test: MIC by microdilution, S. aureus ATCC700699; assay type: cell-based, Staphylococcus aureus; design: unit not given here; details: S. aureus ATCC700699 (MecA positive, glycopeptide resistant), in duplicate
Summary of the method: (§2)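 MICs determined in duplicate by CLSI broth microdilution (M07-A10) in Mueller-Hinton broth. S. aureus ATCC700699: MecA positive, glycopeptide resistant; S. epidermidis ATCC35984: MecA positive; E. coli ATCC25922: wild-type. Panel spans Gram-positive and Gram-negative strains from wild-type to multi-drug resistant.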

S. aureus ST20131365 = test: MIC by microdilution, S. aureus ST20131365; assay type: cell-based, Staphylococcus aureus; details: S. aureus ST20131365 (MecA positive, glycopeptide resistant), in duplicate
Summary of the method: as §2

S. epidermidis ATCC14990 = test: MIC by microdilution, S. epidermidis ATCC14990; assay type: cell-based, Staphylococcus epidermidis; details: S. epidermidis ATCC14990 (MecA negative, wild-type), in duplicate
Summary of the method: as §2

S. epidermidis ATCC35984 = test: MIC by microdilution, S. epidermidis ATCC35984; assay type: cell-based, Staphylococcus epidermidis; details: S. epidermidis ATCC35984 (MecA positive), in duplicate
Summary of the method: as §2

[1] = system: S. epidermidis ST20140436; test: MIC by microdilution, S. epidermidis ST20140436; assay type: cell-based, Staphylococcus epidermidis; details: S. epidermidis ST20140436 (MecA positive, glycopeptide resistant), in duplicate
Summary of the method: as §1

[2] = system: S. epidermidis ST20150446; test: MIC by microdilution, S. epidermidis ST20150446; assay type: cell-based, Staphylococcus epidermidis; details: S. epidermidis ST20150446 (MecA positive, glycopeptide resistant), in duplicate
Summary of the method: as §1

E. faecalis JH2-2 = test: MIC by microdilution, E. faecalis JH2-2; assay type: cell-based, Enterococcus faecalis; design: unit not given here; details: E. faecalis JH2-2 (wild-type), in duplicate
Summary of the method: as §1

E. faecalis UCN41 = test: MIC by microdilution, E. faecalis UCN41; assay type: cell-based, Enterococcus faecalis; design: unit not given here; details: E. faecalis UCN41 (VanA positive, glycopeptide resistant), in duplicate
Summary of the method: as §1

E. faecalis V583 = test: MIC by microdilution, E. faecalis V583; assay type: cell-based, Enterococcus faecalis; details: E. faecalis V583 (VanB positive, glycopeptide resistant), in duplicate
Summary of the method: as §2

E. faecium ATCC19434T = test: MIC by microdilution, E. faecium ATCC19434T; assay type: cell-based, Enterococcus faecium; design: unit not given here; details: E. faecium ATCC19434T (wild-type), in duplicate
Summary of the method: as §1

E. faecium BM4147 = test: MIC by microdilution, E. faecium BM4147; assay type: cell-based, Enterococcus faecium; design: unit not given here; details: E. faecium BM4147 (VanA positive, glycopeptide resistant), in duplicate
Summary of the method: as §1

E. faecium AUS0004 = test: MIC by microdilution, E. faecium AUS0004; assay type: cell-based, Enterococcus faecium; details: E. faecium AUS0004 (VanB positive, glycopeptide resistant), in duplicate
Summary of the method: as §1

E. coli ATCC25922 = test: MIC by microdilution, E. coli ATCC25922; assay type: cell-based, Escherichia coli; details: E. coli ATCC25922 (wild-type), in duplicate
Summary of the method: as §2

[3] = system: Clostridium difficile ATCC700057; test: MIC by microdilution, Clostridium difficile; assay type: cell-based; details: strain ATCC70057 [sic] (Tables 1-2) / ATCC700057 (Tables 3-10), in duplicate
[4] = system: panel of Gram-positive and Gram-negative strains; test: Antibacterial profile on the selected panel of strains; assay type: cell-based; details: summary of Tables 1-12
Summary of the method: as §2

| SMILES | Minimal Inhibitory Concentration (MIC) (S. aureus ATCC25923) | Minimal Inhibitory Concentration (MIC) (S. aureus ATCC29213) | Minimal Inhibitory Concentration (MIC) (S. aureus ATCC700699) | Minimal Inhibitory Concentration (MIC) (S. aureus ST20131365) | Minimal Inhibitory Concentration (MIC) (S. epidermidis ATCC14990) | Minimal Inhibitory Concentration (MIC) (S. epidermidis ATCC35984) | Minimal Inhibitory Concentration (MIC) [1] | Minimal Inhibitory Concentration (MIC) [2] | Minimal Inhibitory Concentration (MIC) (E. faecalis JH2-2) | Minimal Inhibitory Concentration (MIC) (E. faecalis UCN41) | Minimal Inhibitory Concentration (MIC) (E. faecalis V583) | Minimal Inhibitory Concentration (MIC) (E. faecium ATCC19434T) | Minimal Inhibitory Concentration (MIC) (E. faecium BM4147) | Minimal Inhibitory Concentration (MIC) (E. faecium AUS0004) | Minimal Inhibitory Concentration (MIC) (E. coli ATCC25922) | Minimal Inhibitory Concentration (MIC) [3] | antimicrobial / antibacterial activity (in words) [4] |
| --- | --- | --- | --- | --- | --- | --- | --- | --- | --- | --- | --- | --- | --- | --- | --- | --- | --- |
| CC1(C)S[C@@H]2[C@H](NC(=O)[C@H](NC(=O)OCc3cnnn3Cc3ccccc3)c3ccccc3)C(=O)N2[C@H]1C(=O)O [TMB7] | 1 | 1 | >8 | >8 | 1 | >8 | 8 | >8 | 1 and 2 | 4 | 2 | 8 | >8 | >8 | >8 | 4 | do not show an antibacterial activity |
| CC[P+](CC)(CC)[Au-][c]1nn[nH]c1COC(=O)NC(C(=O)NC)c1ccccc1 (stereo not shown) [TMB8] | 0.25 | 0.25 | 0.25 and 0.5 | 0.25 and 0.5 | ≤0.06 | ≤0.06 | 0.125 | 0.125 | 1 | 1 and 2 | 2 | 1 and 2 | 2 | 2 | >8 | ≤0.06-0.125 | have antimicrobial activity |
| CC1(C)S[C@@H]2[C@H](NC(=O)[C@H](NC(=O)CCc3cn(Cc4ccccc4)nn3)c3ccccc3)C(=O)N2[C@H]1C(=O)O [TMB9] | 1 | 1 | >8 | >8 | 1 | >8 | 8 | 8/>8 | 2 | 8 | 4 | 8 | >8 | >8 | >8 | 2-4 | do not show an antibacterial activity |
| CC[P+](CC)(CC)[Au-][c]1nn[nH]c1-c1cccc(C(=O)O)c1 [TMB13] | 0.125 | 0.125 and 0.25 | 0.25 | 0.25 | ≤0.06 | ≤0.06 | ≤0.06 | ≤0.06 | 1 and 2 | 1 and 2 | 1 and 2 | 0.5 | 2 | 1 and 2 | >8 | ≤0.06 | have antimicrobial activity |
| CC[P+](CC)(CC)[Au-][c]1nn[nH]c1COC(=O)NC(C(=O)OC(C)(C)C)c1ccccc1 (stereo not shown) [TMB15] | 0.25 and 0.5 | 0.5 | 0.5 | 0.25 and 0.5 | ≤0.06 | ≤0.06 | 0.125 | 0.125 and 0.25 | 2 | 2 | 2 and 4 | 2 | 4 | 2 | >8 | 0.125 and 0.25 | have antimicrobial activity |
| CC[P+](CC)(CC)[Au-][c]1nn[nH]c1COC(=O)NCC(=O)O [TMB18] | 0.125 | 0.125 | 0.125 | 0.125 | ≤0.06 | ≤0.06 | ≤0.06 | ≤0.06 | 0.25 | 0.25 and 0.5 | 0.25 and 0.5 | 0.25 | 0.5 | 0.25 | >8 | ≤0.06 | have antimicrobial activity |
| CC[P+](CC)(CC)[Au-][c]1nn[nH]c1COC(=O)NC(C(=O)O)c1ccc(O)cc1 (stereo not shown) [TMB26] | 0.125 | 0.125 | 0.25 | 0.125 | ≤0.06 | ≤0.06 | ≤0.06 | ≤0.06 | 0.25 | 0.25 | 0.5 | 0.25 | 0.5 | 0.5 | >8 | 0.125 | have antimicrobial activity |
| CC[P+](CC)(CC)[Au-][c]1nn[nH]c1COC(=O)N[C@H](Cc1ccccc1)C(=O)O [TMB27] | 0.25 | 0.25 and 0.5 | 0.25 | 0.5 | ≤0.06 | ≤0.06 | 0.125 | 0.125 | 0.5 | 0.5 and 1 | 1 | 1 | 1 | 2 | >8 | 0.125 | have antimicrobial activity |

Source: patent US20210284668A1, “GOLD (I)-PHOSPHINE 1,2,3-TRIAZOLE DERIVATIVES WITH ANTIBIOTIC PROPERTIES” (Centre National de la Recherche Scientifique, priority 2018, published 2021)
